The source of these data is ChEMBL document CHEMBL5226282, “TLR2 Agonistic Small Molecules: Detailed Structure-Activity Relationship, Applications, and Future Prospects” (J Med Chem, 2021).

As usually defined, the EC50 is the concentration at which the effect is half-maximal.

The target in experiment [1] is Toll-like receptor 2 (Homo sapiens, UniProt O60603). Nature of the experiment: Agonist activity at human TLR2 transfected in HEK293 cells. The class given is cell-based.
Experiment [2] deals with Toll-like receptor 1/2 (Mus musculus). Kind of experiment: Agonist activity at TLR2/TLR1 in mouse Macrophage cell line.
Experiment [3] has as its target Toll-like receptor 1/2 (Homo sapiens, UniProt O60603+Q15399). Nature of the experiment: Agonist activity at TLR2/TLR1 in human THP-1 cells. Format: cell-based.

Chain of Toll-like receptor 2 (O60603 whole entry): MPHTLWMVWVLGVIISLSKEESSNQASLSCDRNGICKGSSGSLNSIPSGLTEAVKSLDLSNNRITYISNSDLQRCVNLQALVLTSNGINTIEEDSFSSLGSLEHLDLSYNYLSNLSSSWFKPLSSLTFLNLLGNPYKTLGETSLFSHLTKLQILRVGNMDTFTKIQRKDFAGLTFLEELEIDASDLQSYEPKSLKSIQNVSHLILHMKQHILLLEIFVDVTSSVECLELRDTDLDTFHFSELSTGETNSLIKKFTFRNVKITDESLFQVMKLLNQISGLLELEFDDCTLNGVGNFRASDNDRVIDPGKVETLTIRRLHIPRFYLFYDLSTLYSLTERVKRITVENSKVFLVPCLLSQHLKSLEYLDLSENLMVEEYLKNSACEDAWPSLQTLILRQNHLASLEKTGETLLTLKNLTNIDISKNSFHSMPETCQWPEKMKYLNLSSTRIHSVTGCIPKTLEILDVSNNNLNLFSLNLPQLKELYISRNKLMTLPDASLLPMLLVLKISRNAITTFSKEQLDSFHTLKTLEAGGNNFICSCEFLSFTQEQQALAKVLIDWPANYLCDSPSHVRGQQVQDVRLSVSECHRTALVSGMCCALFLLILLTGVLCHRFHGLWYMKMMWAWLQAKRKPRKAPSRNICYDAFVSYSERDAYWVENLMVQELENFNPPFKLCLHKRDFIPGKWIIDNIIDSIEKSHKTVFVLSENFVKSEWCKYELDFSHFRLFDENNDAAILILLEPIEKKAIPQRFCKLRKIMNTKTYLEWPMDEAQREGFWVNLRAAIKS
Chain of Toll-like receptor 1/2 (O60603 whole entry): as above
Chain of Toll-like receptor 1/2 (Q15399 whole entry): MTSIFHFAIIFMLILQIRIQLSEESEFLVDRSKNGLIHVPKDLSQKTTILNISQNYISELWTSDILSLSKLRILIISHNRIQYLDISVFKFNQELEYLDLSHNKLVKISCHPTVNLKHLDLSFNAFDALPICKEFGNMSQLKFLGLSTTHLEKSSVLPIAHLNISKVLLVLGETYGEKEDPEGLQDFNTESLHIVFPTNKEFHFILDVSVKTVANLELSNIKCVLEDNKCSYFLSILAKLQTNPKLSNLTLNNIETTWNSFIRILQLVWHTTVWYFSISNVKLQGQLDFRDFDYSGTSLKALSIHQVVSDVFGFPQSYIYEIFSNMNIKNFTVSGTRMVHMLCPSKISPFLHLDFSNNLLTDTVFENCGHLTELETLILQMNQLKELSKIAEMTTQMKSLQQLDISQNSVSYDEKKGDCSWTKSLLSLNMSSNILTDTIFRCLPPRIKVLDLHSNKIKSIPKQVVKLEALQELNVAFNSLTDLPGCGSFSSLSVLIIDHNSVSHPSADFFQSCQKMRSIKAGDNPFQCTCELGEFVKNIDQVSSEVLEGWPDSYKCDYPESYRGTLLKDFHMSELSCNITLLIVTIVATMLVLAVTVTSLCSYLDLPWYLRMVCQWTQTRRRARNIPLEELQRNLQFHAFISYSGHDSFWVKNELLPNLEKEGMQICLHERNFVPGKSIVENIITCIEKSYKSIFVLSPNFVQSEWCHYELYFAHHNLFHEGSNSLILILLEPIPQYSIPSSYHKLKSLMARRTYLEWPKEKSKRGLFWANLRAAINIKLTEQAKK

As to `CCCCCCCCCCCC(=O)OC[C@H](CSC[C@@H](N)C(=O)NC(C)CCC(C)C)OC(=O)CCCCCCCCCCC` (some centres undefined), the EC50 in experiment [1] came out at 190 nM.

Compound `CCCCCCCCCCCC(=O)OC[C@H](CSC[C@@H](N)C(=O)N[C@@H](CC)COCC(=O)O)OC(=O)CCCCCCCCCCC` had an EC50 in experiment [1] of 6500 nM.

`CCCCCCCCCCCC(=O)OC[C@H](CSC[C@@H](N)C(=O)NCCc1ccc(OCCOCCO)cc1)OC(=O)CCCCCCCCCCC` gave an EC50 in experiment [1] of 15300 nM.

For the compound `CCCCCCCCCCCC(=O)OC[C@H](CSC[C@@H](N)C(=O)NCCCn1ccnc1)OC(=O)CCCCCCCCCCC`, it took 410 nM to reach a half-maximal effect in experiment [1] (EC50).

Compound `CCCCCCCCCCCC(=O)OC[C@H](CSC[C@@H](N)C(=O)NCCCS(=O)(=O)O)OC(=O)CCCCCCCCCCC` registered a concentration giving a half-maximal response (EC50) in experiment [1] of 5560 nM.

Regarding `CCCCCCCCCCCC(=O)OC[C@H](CSC[C@@H](N)C(=O)NCCOCCOCCC(F)(F)P(=O)(O)O)OC(=O)CCCCCCCCCCC`, in experiment [1], the EC50 came to 31 nM.

In turn, `CCCCCCCCCCCC(=O)OC[C@H](CSC[C@@H](N)C(=O)NCCOCCOS(=O)(=O)O)OC(=O)CCCCCCCCCCC` returned an EC50 in experiment [1] of 61 nM.

In experiment [1], `CCCCCCCCCCCC(=O)OC[C@H](CSC[C@@H](N)C(=O)NC(Cc1ccccc1)c1ccccc1)OC(=O)CCCCCCCCCCC` (some centres undefined) returned an EC50 of 68 nM.

As for `CCCCCCCCCCCCCCNC(=O)[C@@H]1CN(C(=O)c2ccc(C(=O)N3C[C@@H](C(=O)N[C@H]4C[C@@H]4c4ccccc4)[C@H](C(=O)N[C@@H]4C[C@H]4c4ccccc4)C3)cc2)C[C@H]1C(=O)NCCCCCCCCCCCCCC`, the EC50 was 10 nM in experiment [2] and 0.17 nM in experiment [3].

For `O=C(NCCc1ccc(F)cc1)[C@@H]1CN(C(=O)C#CC(=O)N2C[C@@H](C(=O)NCCc3ccc(F)cc3)[C@H](C(=O)NCCc3ccc(F)cc3)C2)C[C@H]1C(=O)NCCc1ccc(F)cc1`, the EC50 in experiment [2] and in experiment [3] was greater than 5000 nM each time.

For `CCCCCCCCCCCCCCCCNC(=O)[C@@H]1CN(C(=O)c2ccc(C(=O)N3C[C@@H](C(=O)N[C@H]4C[C@@H]4c4ccccc4)[C@H](C(=O)N[C@@H]4C[C@H]4c4ccccc4)C3)cc2)C[C@H]1C(=O)N[C@H]1C[C@@H]1c1ccccc1`, the values for the EC50 in experiment [2] and in experiment [3] were 2.6 nM and 0.5 nM, respectively.

Consider `O=C(NCCc1ccc(F)cc1)[C@@H]1CN(C(=O)c2ccc(C(=O)N3C[C@@H](C(=O)NCCc4ccc(F)cc4)[C@H](C(=O)NCCc4ccc(F)cc4)C3)cc2)C[C@H]1C(=O)NCCc1ccc(F)cc1`, for which the EC50 in experiment [2] was greater than 5000 nM; in experiment [3], 50 nM.

As for `CCCCCCCCCCNC(=O)[C@@H]1CN(C(=O)c2ccc(C(=O)N3C[C@@H](C(=O)N[C@H]4C[C@@H]4c4ccccc4)[C@H](C(=O)N[C@@H]4C[C@H]4c4ccccc4)C3)cc2)C[C@H]1C(=O)NCCCCCCCCCC`, the values for the EC50 in experiment [2] and in experiment [3] were 4 nM and 0.18 nM, respectively.

Regarding `O=C(N[C@H]1C[C@@H]1c1ccccc1)[C@@H]1CN(C(=O)/C=C/C=C/C(=O)N2C[C@@H](C(=O)N[C@H]3C[C@@H]3c3ccccc3)[C@H](C(=O)N[C@H]3C[C@@H]3c3ccccc3)C2)C[C@H]1C(=O)N[C@H]1C[C@@H]1c1ccccc1`, the EC50 came to 130 nM in experiment [2] and 0.2 nM in experiment [3].

Consider `O=C(NCCc1ccc(F)cc1)[C@@H]1CN(C(=O)C/C=C/CC(=O)N2C[C@@H](C(=O)NCCc3ccc(F)cc3)[C@H](C(=O)NCCc3ccc(F)cc3)C2)C[C@H]1C(=O)NCCc1ccc(F)cc1`, for which the EC50 in experiment [2] and in experiment [3] was greater than 5000 nM throughout.

Regarding `O=C(N[C@H]1C[C@@H]1c1ccccc1)[C@@H]1CN(C(=O)[C@H]2CC[C@H](C(=O)N3C[C@@H](C(=O)N[C@H]4C[C@@H]4c4ccccc4)[C@H](C(=O)N[C@H]4C[C@@H]4c4ccccc4)C3)CC2)C[C@H]1C(=O)N[C@H]1C[C@@H]1c1ccccc1`, the EC50 in experiment [2] and in experiment [3] was greater than 5000 nM in each case.

Consider `CCCCNC(=O)[C@@H]1CN(C(=O)c2ccc(C(=O)N3C[C@@H](C(=O)N[C@H]4C[C@@H]4c4ccccc4)[C@H](C(=O)N[C@@H]4C[C@H]4c4ccccc4)C3)cc2)C[C@H]1C(=O)N[C@H]1C[C@@H]1c1ccccc1`, for which the EC50 in experiment [2] came to 30 nM; in experiment [3], 2 nM.

Consider `O=C(N[C@H]1C[C@@H]1c1ccccc1)[C@@H]1CN(C(=O)c2ccc3cc(C(=O)N4C[C@@H](C(=O)N[C@H]5C[C@@H]5c5ccccc5)[C@H](C(=O)N[C@H]5C[C@@H]5c5ccccc5)C4)ccc3c2)C[C@H]1C(=O)N[C@H]1C[C@@H]1c1ccccc1`, for which the EC50 came out at 380 nM in experiment [2] and 2 nM in experiment [3].

`O=C(N[C@H]1C[C@@H]1c1ccccc1)[C@@H]1CN(C(=O)Cc2ccc(CC(=O)N3C[C@@H](C(=O)N[C@H]4C[C@@H]4c4ccccc4)[C@H](C(=O)N[C@H]4C[C@@H]4c4ccccc4)C3)cc2)C[C@H]1C(=O)N[C@H]1C[C@@H]1c1ccccc1`: the EC50 in experiment [2] and in experiment [3] was greater than 5000 nM throughout.

For the compound `O=C(N[C@H]1C[C@@H]1c1ccccc1)[C@@H]1CN(C(=O)c2cccc(C(=O)N3C[C@@H](C(=O)N[C@H]4C[C@@H]4c4ccccc4)[C@H](C(=O)N[C@H]4C[C@@H]4c4ccccc4)C3)c2)C[C@H]1C(=O)N[C@H]1C[C@@H]1c1ccccc1`, the half-maximal effective concentration (EC50) in experiment [2] and in experiment [3] was greater than 5000 nM each time.

For the compound `N#Cc1ccc([C@H]2C[C@@H]2NC(=O)[C@@H]2CN(C(=O)c3ccc(C(=O)N4C[C@@H](C(=O)N[C@H]5C[C@@H]5c5ccc(C#N)cc5)[C@H](C(=O)N[C@@H]5C[C@H]5c5ccc(C#N)cc5)C4)cc3)C[C@H]2C(=O)N[C@H]2C[C@@H]2c2ccc(C#N)cc2)cc1`, the EC50 in experiment [2] and in experiment [3] was greater than 5000 nM in each case.

Take `O=C(N[C@H]1C[C@@H]1c1ccccc1)[C@@H]1CN(C(=O)c2ccc(C(=O)N3C[C@@H](C(=O)N[C@H]4C[C@@H]4c4ccccc4)[C@H](C(=O)N[C@H]4C[C@@H]4c4ccccc4)C3)nc2)C[C@H]1C(=O)N[C@H]1C[C@@H]1c1ccccc1`: the figures for the EC50 in experiment [2] and in experiment [3] were 270 nM and 4 nM, respectively.

Take `O=C(N[C@H]1C[C@@H]1c1ccc(Br)cc1)[C@@H]1CN(C(=O)c2ccc(C(=O)N3C[C@@H](C(=O)N[C@H]4C[C@@H]4c4ccc(Br)cc4)[C@H](C(=O)N[C@@H]4C[C@H]4c4ccc(Br)cc4)C3)cc2)C[C@H]1C(=O)N[C@H]1C[C@@H]1c1ccc(Br)cc1`: the EC50 was greater than 5000 nM in experiment [2] and 1600 nM in experiment [3].

On to `O=C(NCCc1ccc(F)cc1)[C@@H]1CN(C(=O)[C@H]2CC[C@@H](C(=O)N3C[C@@H](C(=O)NCCc4ccc(F)cc4)[C@H](C(=O)NCCc4ccc(F)cc4)C3)CC2)C[C@H]1C(=O)NCCc1ccc(F)cc1`, for which the EC50 in experiment [2] and in experiment [3] was greater than 5000 nM in each case.

Turning to `O=C(N[C@H]1C[C@@H]1c1ccccc1)[C@@H]1CN(C(=O)[C@@H]2CCC[C@H](C(=O)N3C[C@@H](C(=O)N[C@H]4C[C@@H]4c4ccccc4)[C@H](C(=O)N[C@H]4C[C@@H]4c4ccccc4)C3)C2)C[C@H]1C(=O)N[C@H]1C[C@@H]1c1ccccc1`, the EC50 in experiment [2] and in experiment [3] was greater than 5000 nM throughout.

For the compound `CCCCCCCCNC(=O)[C@@H]1CN(C(=O)c2ccc(C(=O)N3C[C@@H](C(=O)N[C@H]4C[C@@H]4c4ccccc4)[C@H](C(=O)N[C@@H]4C[C@H]4c4ccccc4)C3)cc2)C[C@H]1C(=O)NCCCCCCCC`, the results for the EC50 in experiment [2] and in experiment [3] were 1000 nM and 1 nM, respectively.

Consider `O=C(N[C@H]1C[C@@H]1c1ccc(Cl)cc1)[C@@H]1CN(C(=O)c2ccc(C(=O)N3C[C@@H](C(=O)N[C@H]4C[C@@H]4c4ccc(Cl)cc4)[C@H](C(=O)N[C@@H]4C[C@H]4c4ccc(Cl)cc4)C3)cc2)C[C@H]1C(=O)N[C@H]1C[C@@H]1c1ccc(Cl)cc1`, for which the values for the EC50 in experiment [2] and in experiment [3] were 5000 nM and 40 nM, respectively.

Take `O=C(N[C@H]1C[C@@H]1c1ccccc1)[C@@H]1CN(C(=O)C#CC(=O)N2C[C@@H](C(=O)N[C@H]3C[C@@H]3c3ccccc3)[C@H](C(=O)N[C@H]3C[C@@H]3c3ccccc3)C2)C[C@H]1C(=O)N[C@H]1C[C@@H]1c1ccccc1`: the EC50 in experiment [2] and in experiment [3] was greater than 5000 nM each time.

With `C#CCNc1cc(C(=O)N2C[C@@H](C(=O)N[C@H]3C[C@@H]3c3ccccc3)[C@H](C(=O)N[C@H]3C[C@@H]3c3ccccc3)C2)ccc1C(=O)N1C[C@@H](C(=O)N[C@H]2C[C@@H]2c2ccccc2)[C@H](C(=O)N[C@H]2C[C@@H]2c2ccccc2)C1`, the EC50 in experiment [2] was found to be 750 nM; in experiment [3] it was 15 nM.

In the case of `O=C(NCCc1ccc(F)cc1)[C@@H]1CN(C(=O)[C@@H]2CCC[C@H](C(=O)N3C[C@@H](C(=O)NCCc4ccc(F)cc4)[C@H](C(=O)NCCc4ccc(F)cc4)C3)C2)C[C@H]1C(=O)NCCc1ccc(F)cc1`, the EC50 in experiment [2] and in experiment [3] was greater than 5000 nM throughout.

Regarding `O=C(NCCc1ccc(F)cc1)[C@@H]1CN(C(=O)/C=C/C(=O)N2C[C@@H](C(=O)NCCc3ccc(F)cc3)[C@H](C(=O)NCCc3ccc(F)cc3)C2)C[C@H]1C(=O)NCCc1ccc(F)cc1`, the EC50 in experiment [2] and in experiment [3] was greater than 5000 nM each time.

Regarding `O=C(N[C@H]1C[C@@H]1c1ccccc1)[C@@H]1CN(C(=O)c2ccc(C(=O)N3C[C@@H](C(=O)N[C@H]4C[C@@H]4c4ccccc4)[C@H](C(=O)N[C@H]4C[C@@H]4c4ccccc4)C3)c3ccccc23)C[C@H]1C(=O)N[C@H]1C[C@@H]1c1ccccc1`, the EC50 in experiment [2] and in experiment [3] was greater than 5000 nM each time.

For the compound `O=C(N[C@H]1C[C@@H]1c1ccccc1)[C@@H]1CN(C(=O)c2cc(O)c(C(=O)N3C[C@@H](C(=O)N[C@H]4C[C@@H]4c4ccccc4)[C@H](C(=O)N[C@H]4C[C@@H]4c4ccccc4)C3)cc2O)C[C@H]1C(=O)N[C@H]1C[C@@H]1c1ccccc1`, the EC50 in experiment [2] was greater than 5000 nM; in experiment [3], 20 nM.

As to `CCCCNC(=O)[C@@H]1CN(C(=O)c2ccc(C(=O)N3C[C@@H](C(=O)N[C@H]4C[C@@H]4c4ccccc4)[C@H](C(=O)N[C@@H]4C[C@H]4c4ccccc4)C3)cc2)C[C@H]1C(=O)NCCCC`, the EC50 in experiment [2] was determined as 60 nM; in experiment [3], 0.28 nM.

For `O=C(N[C@H]1C[C@@H]1c1ccccc1)[C@@H]1CN(C(=O)c2ccc(-c3ccc(C(=O)N4C[C@@H](C(=O)N[C@H]5C[C@@H]5c5ccccc5)[C@H](C(=O)N[C@H]5C[C@@H]5c5ccccc5)C4)cc3)cc2)C[C@H]1C(=O)N[C@H]1C[C@@H]1c1ccccc1`, the figures for the EC50 in experiment [2] and in experiment [3] were 2300 nM and 90 nM, respectively.

For `CCCCCCCCNC(=O)[C@@H]1CN(C(=O)c2ccc(C(=O)N3C[C@@H](C(=O)NCCCCCCCC)[C@H](C(=O)N[C@@H]4C[C@H]4c4ccccc4)C3)cc2)C[C@H]1C(=O)N[C@@H]1C[C@H]1c1ccccc1`, the EC50 in experiment [2] stood at 710 nM; in experiment [3], 3.5 nM.
